Experiments:
Assay type in all cases: cell-based, human
[1] = system: IMR90 and HUVECs; experiment: Flow cytometry of NIR-ASM in NQO1-negative normal cell lines
Protocol: (§1) Detection of NQO1 in live cells. Inspired by the excellent biocompatibility, the inventors investigated its performance in both NQO1 expressing cancer cells (A549, H460) and NQO1 non-expressing normal cells (IMR90, HUVEC). All cells were incubated with NIR-ASM (10 μM) for 60 min, washed with PBS and were imaged under a confocal microscope after counterstaining the nuclei with Hoechst 33342 (FIG. 12A). […] The higher expression of NQO1 protein in A549 and H460 cells and its absence in normal cells, IMR90 and HUVEC as found with western blot analysis correlated with the probe reactivity in cells (FIG. 12B). […] Cell sorting using flow cytometry is a well-established technology in clinical diagnostics and biomedical research. To assess the applicability of the NIR-ASM to rapidly detect and quantify in both cancer and normal cells based on NQO1 expression, the probe was incubated with cell suspensions for 60 min, and about 1×10^4 cells were analyzed on a flow cytometer.
(§2) Flow cytometry analysis. The endogenous NQO1 activity of cancer cells and normal cells was determined by flow cytometry after NIR-ASM exposure. Cells were incubated with 10 μM of NIR-ASM for 60 min, harvested by trypsinization and washed with PBS. For inhibitor study, cells were pretreated with NQO1 inhibitor ES936 (100 nM) for 6 h before adding the NIR-ASM. About 1×10^4 cells were analyzed by flow cytometry (λex=488 nm).

[2] = system: A549 and H460 cells; experiment: Flow cytometry of NIR-ASM in NQO1-positive cancer cell lines; conditions: 60 min, about 1×10^4 cells
Protocol: as §1, §2

[3] = system: A549, H460 cells; experiment: Fluorescence microscopy of NIR-ASM in NQO1 expressing cancer cells
Protocol: as §1
Fluorescence imaging. Both cancer and normal cells were seeded into 6-well plates and cultured overnight in respective media at 37° C. Cells were treated with 10 μM NIR-ASM and incubated at 37° C. for 60 min. They were then treated with nuclear stain Hoechst 33342 for 5 min. Finally, the medium was replaced with PBS and the live cells were imaged using a multiphoton confocal fluorescence microscope (λex/em=488/644 nm). […]

[4] = system: A549 and NCI-H460 cancer cells, IMR 90 and HUVECs normal cells; experiment: Cytotoxicity of NIR-ASM, resazurin reduction assay; conditions: up to 100 μM, 72 h
Protocol: Assessment of NIR-ASM biocompatibility. Inspired by the excellent photophysical properties of NIR-ASM in monitoring the NQO1 activity in vitro, the inventors determined the biocompatibility of NIR-ASM both in vitro and in vivo before using for endogenous applications. […] Further, to evaluate NIR-ASM tolerability and toxicity in vivo, CD1 mice were grouped for the administration of vehicle (PEG:H2O:EtOH) alone or 5 mg/kg of NIR-ASM five times a week for five weeks. The average mouse weights were monitored as a surrogate marker to the toxicity.
Cell viability assays. NIR-ASM was evaluated for in vitro cytotoxicity in human cancer (A549 and H460) and normal (IMR90 and HUVECs) cell lines following a protocol of 72 h continuous drug exposure using resazurin reduction assay. The cell lines were grown in 96-well microtiter plates at a density of 5000 cells per well. The plates were incubated for 24 h prior to addition of NIR-ASM. Ten concentrations of NIR-ASM were evaluated in quadruplicate sets. Plates were incubated for a further 72 h and replaced with 20 μL resazurin 0.01% (w/v) containing the medium. After 2 h, the fluorescence was measured using a Tecan Reader (Infinite m200 Pro) at a 544 nm excitation and 590 nm emission.

`CC1=C(C)C(=O)C(C(C)(C)CC(=O)Nc2ccc(/C=C/C3=CC(=C(C#N)C#N)CC(C)(C)C3)cc2)=C(C)C1=O` [NIR-ASM, (E)-N-(4-(2-(3-(dicyanomethylene)-5,5-dimethylcyclohex-1-en-1-yl)vinyl)phenyl)-3-methyl-3-(2,4,5-trimethyl-3,6-dioxocyclohexa-1,4-dien-1-yl)butanamide] was tested, and the “flow cytometry fluorescence signal, negative normal cells” value ([1]; 60 min, about 1×10^4 cells) was “minimal fluorescence”, the intracellular stability ([1]; sustained low fluorescence in normal cells) was “intracellular stability of NIR-ASM without any non-specific activation” and the “flow cytometry fluorescence signal, NQO1-positive cells” value [2] was “high-intensity unimodal distribution of signals”. For the same compound, the “fluorescence signal in NQO1 expressing cancer cells” value ([3]; 10 μM, 60 min) was “bright NIR fluorescence signal”, the cell permeability ([3]; inferred from intracellular activation) was “confirm the cell permeability” and the cytotoxicity [4] was “not toxic”.

Reference: patent US11957766B2, “HNQO1-activatable fluorescent probe for imaging cancer cells in-vitro and in-vivo” (Texas Tech University System, priority 2019, dated 2024)
